# Measurements as given in patent US6624149B2, “Method for nucleic acid transfection of cells” (Genteric, Inc., priority 2000, dated 2003).
# Tested on: rat salivary gland (submandibular gland)
# Assay: Intraductal transfection of rat salivary gland with pCMV.FOX.Luc-2, luciferase assay
# Format: in vivo
# Description: Nucleic acid/transition metal enhancer mixtures were prepared by sequentially adding deionized water or a buffered solution, DNA, and a desired transition metal enhancer to a polystyrene tube with mixing. “Free” (i.e., “Naked”) DNA controls were prepared by sequentially adding DNA to water or a buffered solution
# Male Sprague-Dawley rats (260-280 g) were fasted the night prior to treatment. After administration of the anesthesia (see Section 6.1.3), both right and left salivary gland ducts (specifically, Wharton's duct) were cannulated with fine polyurethane tubing (i.d. 0.005″) and cemented into the desired location. Atropine was then administered subcutaneously (0.5 mg/kg) and, after eight minutes, 50 μl of the nucleic acid/transition metal enhancer mixture was injected, infused, instilled or administered at the ductal orifice or directly into the duct at any point along its length. See Goldfine, Nature Biotechnology 15:1378, 1997.
# Regardless of whether a liposome/transition metal/nucleic acid mixture or a nucleic acid/transition metal enhancer mixture was delivered, the tubing and mixture was kept in place for ten additional minutes after application of the mixture prior to removal. At 48 hours post atropine administration, the rats were anesthetized by intraperitoneal injection of pentobarbital (50 mg/kg). The right and left submandibular glands were surgically removed, and the tissues were assayed for any observable reporter gene (luciferase of hGH) expression using the methods described below.
# The presently claimed invention describes a new method using a combination of a transition metal enhancer and a nucleic acid of interest for gene delivery. The present invention provides a method which may enhance gene expression by improving the efficiency of gene delivery. This change in gene expression can be quantitated using various assays, such as the luciferase assay. de Wet et al., Molec. Cell Biol. 7:725, 1987. In various experiments described herein, the right and left submandibular glands were removed from the male Sprague-Dawley rats at 48 hours post administration of the pCMV.FOX.Luc-2 containing solution. In additional experiments other organs, such as the rat lungs, were used.
# In experiments in which submandibular glands were tested, the amount of luciferase present in the right and left submandibular gland of each male Sprague-Dawley rat was measured independently and treated as separate, individual experiments (e.g., trials) because the amount of luciferase expressed by one submandibular gland is independent of the amount of luciferase expressed in the other submandibular gland. Therefore, each submandibular gland was independently lysed in lysis buffer (1.0 ml buffer per 0.1 g tissue) to create a lysis homogenate. The lysis buffer contained 100 mM K2PO4 pH 7.0, 1 mM dithiothreitol, and 1% Triton X-100. A 100 μl aliquot of lysis homogenate from each submandibular gland was analyzed for luciferase activity (de Wet et al., Molec. Cell Biol. 7:725, 1987) using a Monolight 2010 luminometer (Analytical Luminescence Laboratories). Accordingly, luciferase light emissions from each aliquot of the lysis homogenate were measured over a ten second period.
# Activity was expressed as relative light units, values collectively representing the assay conditions, luciferase concentration, luminometer photomultiplier tube sensitivity and background. Using well known techniques, the luciferase light units may be converted, for example, to picograms of luciferase protein. See, e.g., Felgner et al., U.S. Pat. No. 5,580,899 at Example 13. All experiments were performed in duplicate. In experiments using submandibular glands, data from each individual submandibular gland lysis homogenate is reported as a single trial.
smiles,measurement,setting,value
"[Cl][Co][Cl] [CoCl2, cobalt chloride]",Average relative light units,"Table 4, CoCl2 0.3 mM, 32 μg DNA in 50 μl, 48 hours",37219 relative light units
same,Average relative light units,"Table 4, CoCl2 0.9 mM, 32 μg DNA in 50 μl, 48 hours",44926 relative light units
"[Cl][Ni][Cl] [Ni, nickel chloride]",Average relative light units,"Table 2, metal chloride 0.3 mM, 32 μg DNA in 50 μl, 48 hours, eight glands",18391 relative light units
same,Average relative light units,"Table 2, metal chloride 0.9 mM, 32 μg DNA in 50 μl, 48 hours, eight glands",65121 relative light units
"[Cl][Cu] [Cu, cuprous chloride]",Average relative light units,"Table 3, metal chloride 0.6 mM, 32 μg DNA in 50 μl, Tris-HCl/EDTA, 48 hours, eight glands",17667 relative light units
same,Average relative light units,"Table 3, metal chloride 0.9 mM, 32 μg DNA in 50 μl, Tris-HCl/EDTA, 48 hours, eight glands",42204 relative light units
same,Average relative light units,"Table 3, metal chloride 1.2 mM, 32 μg DNA in 50 μl, Tris-HCl/EDTA, 48 hours, eight glands",17194 relative light units
"O=S(=O)([O-])[O-].[Zn+2] [ZnSO4, zinc sulfate]",Average relative light units,"Table 6, zinc 3.6 mM, 128 μg DNA in 50 μl, 48 hours",355676 relative light units
"CC(=O)[O-].CC(=O)[O-].[Zn+2] [Zn(CH3CO2)2, zinc acetate]",Average relative light units,"rat, in vivo",309965 relative light units
